Experimental data reported in US9790252B2, “2-fluorinated riboses and arabinoses and methods of use and synthesis” (CORNELL UNIVERSITY, priority 2009, dated 2017).
pEC50, pKi: −log10 of the molar value.

Legend:
[1] = test system: HEK293 cells; experiment: Toxicity to HEK293 cells (MTT); format: cell-based; conditions: for 100 μM absorbance / 100 μM relative viability: HEK293, 100 μM; for 100 μM absorbance / 100 μM relative viability / 500 μM absorbance / 500 μM relative viability: 12 hours; for 100 μM absorbance / 500 μM absorbance: 570 nm; for 100 μM relative viability / 500 μM relative viability: control = 1; for 500 μM absorbance / 500 μM relative viability: HEK293, 500 μM; for pEC50: HEK293, 2′-deoxy-2′-fluoro-nucleosides and nucleotides
Experimental: 1. HEK293 cells were seeded in 96-well plate at a density of 25,000 cells/well the day before the experiment starts;
2. After the cells reach 50˜60% confluency, media was taken out, and 100 μL of fresh media was added to each well;
3. F-derivatives were plated at 100 and 500 μM (in duplicates) concentrations;
4. After 12 hours' incubation at 37° C., the media was taken out, 100 μL of fresh media was added to each well along with 20 μL of 5 mg/mL of MTT solution (in PBS);
5. After 1.5 hours' incubation at 37° C., media was taken out and 100 μL of DMSO was added to each well, the plate was mixed on shaker for 5 mins;
(§1) Absorbance was measured at 570 nm.
(§2) Assay for Determining Toxicity to HEK293 and Neuro2A Cells • 1. HEK293 and Neuro2A cells were seeded in 96-well plate at a density of 25,000 cells/well the day before the experiment starts; • 2. After the cells reach 50˜60% confluency, media was taken out, and 100 μL of fresh media was added to each well; • 3. Cl-derivatives were plated at 100 and 500 μM (in duplicates) concentrations; • 4. After 12 hours' incubation at 37° C., the media was taken out, 100 μL of fresh media was added to each well along with 20 μL of 5 mg/mL of MTT solution (in PBS); • 5. After 2 hours' incubation at 37° C., media was taken out and 100 μL of DMSO was added to each well, the plate was mixed on shaker for 5 mins; • 6. Absorbance was measured at 570 nm.

[2] = test system: Neuro2A cells; experiment: Toxicity to Neuro2A cells (MTT); format: cell-based; conditions: for 100 μM absorbance / 100 μM relative viability / 500 μM absorbance / 500 μM relative viability: 12 hours; for 100 μM absorbance / 500 μM absorbance: 570 nm; for pEC50: 2′-deoxy-2′-fluoro-nucleosides and nucleotides
Experimental: 6. Neuro2A cells were seeded in 96-well plate at a density of 25,000 cells/well the day before the experiment starts;
7. After the cells reach 50˜60% confluency, media was taken out, and 100 μL of fresh media was added to each well;
8. […]
9. After 12 hours' incubation at 37° C., the media was taken out, 100 μL of fresh media was added to each well along with 20 μL of 5 mg/mL of MTT solution (in PBS);
10. After 1.5 hours' incubation at 37° C., media was taken out and 100 μL of DMSO was added to each well, the plate was mixed on shaker for 5 mins;
as §1
as §2, with “Cl-derivatives were plated at 100 and 500 μM (in duplicates) concentrations; • 4.” left out

[3] = biological target: T1, SirT3 (Homo sapiens, UniProt Q9NTG7); experiment: SirT3 activity assay (HPLC of 2′- and 3′-AADPR); format: biochemical
T1 sequence (Q9NTG7 1-399): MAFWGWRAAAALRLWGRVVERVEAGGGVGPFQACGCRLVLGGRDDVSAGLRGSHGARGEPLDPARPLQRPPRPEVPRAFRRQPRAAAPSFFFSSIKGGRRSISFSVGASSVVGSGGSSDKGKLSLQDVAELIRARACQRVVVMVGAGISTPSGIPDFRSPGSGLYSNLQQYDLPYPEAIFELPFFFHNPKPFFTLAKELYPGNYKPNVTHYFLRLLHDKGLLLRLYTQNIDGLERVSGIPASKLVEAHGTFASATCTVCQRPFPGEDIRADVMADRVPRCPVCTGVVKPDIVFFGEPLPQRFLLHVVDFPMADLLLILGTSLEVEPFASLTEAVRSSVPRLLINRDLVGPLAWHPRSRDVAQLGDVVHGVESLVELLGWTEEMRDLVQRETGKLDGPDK
Experimental: (§3) Reactions containing 800 μM NAD^+, 500 μM H3 peptide, and 100 mM phosphate buffer at pH 7.5, with varying concentrations of 2′-deoxy-2′-fluoro-nucleosides or nucleotides were initiated by addition of SirT3 enzyme to a concentration of 13.9 μM. Reactions were incubated for 2 hours at 37° C. and quenched by addition of trifluoroacetic acid to pH 2. After centrifugation to remove precipitates, reactions were injected on HPLC for activity analysis. Production of 2′- and 3′-AADPR were analyzed at 260 nm.
as §3, with “SirT3 Activity Assay: Reactions containing” for “Reactions containing”, “concentrations of 2′-deoxy-2′-chloro-nucleosides were initiated” for “concentrations of 2′-deoxy-2′-fluoro-nucleosides or nucleotides were initiated”

[4] = biological target: T2, SirT2 (Homo sapiens, UniProt Q8IXJ6); experiment: SirT2 activity assay (HPLC of 2′- and 3′-AADPR); format: biochemical; conditions: at 1 mM; read-out: SirT2 % inhibited
T2 sequence (Q8IXJ6 1-389): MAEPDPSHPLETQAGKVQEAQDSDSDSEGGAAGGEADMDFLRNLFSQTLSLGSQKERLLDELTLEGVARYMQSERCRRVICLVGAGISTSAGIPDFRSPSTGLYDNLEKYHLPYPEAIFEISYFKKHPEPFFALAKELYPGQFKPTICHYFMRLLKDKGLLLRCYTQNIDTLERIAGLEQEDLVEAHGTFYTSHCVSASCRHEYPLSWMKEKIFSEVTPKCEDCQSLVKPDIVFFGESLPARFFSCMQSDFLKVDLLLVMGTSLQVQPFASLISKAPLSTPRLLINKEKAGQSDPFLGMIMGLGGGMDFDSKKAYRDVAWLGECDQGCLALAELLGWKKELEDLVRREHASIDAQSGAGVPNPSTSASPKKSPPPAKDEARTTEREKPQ
Experimental: as §3, with “SirT2” for “SirT3”, “16.6” for “13.9”, “45 mins” for “2 hours”
SirT2 Activity Assay: Reactions containing 800 μM NAD^+, 500 μM H3 peptide, and 100 mM phosphate buffer at pH 7.5, with varying concentrations of 2′-deoxy-2′-chloro-nucleosides were initiated by addition of SirT2 enzyme to a concentration of 16.6 μM. Reactions were incubated for 45 mins at 37° C. and quenched by addition of trifluoroacetic acid to pH 2. After centrifugation to remove precipitates, reactions were injected on HPLC for activity analysis. Production of 2′- and 3′-AADPR were analyzed at 260 nm.

[5] = MTT 2 hours, chloro-nucleosides
[6] = control = 1, chloro-nucleosides

Compound	100 μM absorbance ([1]; MTT 1.5 hours)	100 μM relative viability [1]	500 μM absorbance ([1]; MTT 1.5 hours)	500 μM relative viability [1]	pEC50 [1]	100 μM absorbance ([2]; MTT 1.5 hours)	100 μM relative viability ([2]; control = 1)	500 μM absorbance ([2]; MTT 1.5 hours)	500 μM relative viability ([2]; control = 1)	pEC50 [2]	inhibition at 1000 µM [4] [%]	other results
2′-deoxy-2′-fluoro-ribo-NAD^+ [ribo-F-NAD]	1.4985	0.6592	1.384	0.6087	2.99	1.6122	0.663	0.6455	0.265	3.46	–	–
NC(=O)c1ccc[n+]([C@@H]2O[C@H](COP(=O)([O-])OP(=O)(O)OC[C@H]3O[C@@H](n4cnc5c(N)ncnc54)[C@H](O)[C@@H]3O)[C@@H](O)[C@@H]2F)c1 [ara-F-NAD, 2′-deoxy-2′-fluoro-arabino-NAD^+]	1.523	0.6699	1.302	0.5729	3.00	2.2482	0.924	1.7012	0.699	2.82	–	–
NC(=O)c1ccc[n+]([C@H]2O[C@H](CO)C(O)C2Cl)c1 (stereo partly drawn) [α-ara-Cl-NR, 1-(2′-deoxy-2′-chloro-arabinofuranosyl)-nicotinamide]	–	–	–	–	–	–	–	–	–	–	–	100 μM absorbance [1, 5]: 2.09; 100 μM relative viability ([1]; chloro-nucleosides): 0.8601; 500 μM absorbance [1, 5]: 1.77; 500 μM relative viability ([1]; chloro-nucleosides): 0.7284; kills % of HEK293 cells ([1]; HEK293, at 500 μM): kills 30% at 500 μM; 100 μM absorbance [2, 5]: 2.575; 100 μM relative viability [2, 6]: 1.089; 500 μM absorbance [2, 5]: 2.34; 500 μM relative viability [2, 6]: 0.9894; toxicity to Neuro2A (in words) ([2]; at 500 μM): not toxic at 500 μM
NC(=O)c1ccc[n+]([C@H]2O[C@H](CO)C(O)[C@@H]2Cl)c1 (stereo partly drawn) [α-ribo-Cl-NR, 1-(2-deoxy-2-chloro-D-ribofuranosyl)-nicotinamide]	–	–	–	–	–	–	–	–	–	–	50	inhibition at 1000 µM ([3]; at 1 mM, read-out: SirT3 % inhibited): 86%
NC(=O)c1ccc[n+]([C@@H]2O[C@H](CO)C(O)[C@@H]2Cl)c1 (stereo partly drawn) [β-ribo-Cl-NR, 1-(2-deoxy-2-chloro-D-ribofuranosyl)-nicotinamide]	–	–	–	–	–	–	–	–	–	–	43	pKi ([3]; 800 μM NAD+, 500 μM H3 peptide, pH 7.5, 2 hours at 37° C.): 4.09
